{"source": "patent US20190225941A1", "about": "“MODULATION OF FUNCTION OF IMMUNE EFFECTOR CELLS” (OSLO UNIVERSITETSSYKEHUS HF, priority 2016, published 2019)", "key": {"[1]": {"test_system": "NK cells", "experiment": "Viability of NK cells exposed to lysosomotropic compounds", "format": "cell-based, human", "details": "at the doses tested, FIG. 15A"}, "[2]": {"test_system": "NK cells", "experiment": "Degranulation (CD107a) and intracellular IFN-γ functional assay, NK cells stimulated with K562 target cells", "format": "cell-based, human", "details": "for IFN-γ response to K562 cells / degranulation (CD107a) in response to K562 cells: 5 h, 1:1 ratio, GPN 50 μM, mefloquine 10 μM, siramesine 10 μM, vacuolin-1 10 μM", "protocol": "(§1) Functional assays were performed at 37° C. in complete medium (RPMI+10% FCS) for the times indicated. Purified NK cells were incubated with K562 target cells for 5 hours at a ratio of 1:1 in the presence of anti-CD107a-FITC (biolegend) for degranulation assays, or with the addition of Brefeldin A (GolgiPlug BD) for degranulation plus intracellular cytokine assays. Treatment with lysosomotropic reagents were performed for the duration of the assay using the following final concentrations; glycyl-L-phenylalanine-β-naphthylamide (GPN, 50 μM), mefloquine (10 μM), siramesine (10 μM), vacuolin-1 (10 μM). Stimulation with PMA (1 μg/mL) and ionomycin (0.5 μM), or with thapsigargin (1 μM) and/or U18666a (2 μg/mL) were performed for the times indicated, and the cells were stained for CD107a surface expression post-stimulation."}, "[3]": {"test_system": "primary NK cells", "experiment": "Confocal imaging of primary NK cells exposed to PIKfyve inhibitors (LAMP-1 / granzyme B staining)", "format": "cell-based, human", "details": "for secretory lysosome size: 1 μM overnight, LAMP-1 staining, FIG. 10", "protocol": "Sorted NK cells were prepared for confocal microscopy using fixation/permeabilization (BD Bioscience Cytofix/Cytoperm) prior to intracellular staining with mouse anti-human granzyme B-A647 (GB11), rabbit anti-human pericentrin (Ab4448) followed by Donkey anti-Rabbit IgG Alexa555 and donkey anti-mouse-A568. After staining, the fixed cells were adhered to glass cover slips using Cell Tak (Corning) and mounted using Pro-long Gold Antifade with DAPI. The cells were examined with a Zeiss LSM 710 confocal microscope (Carl Zeiss Microlmaging GmbH) equipped with an Ar-Laser Multiline (458/488/514 nm), a DPSS-561 10 (561 nm), a Laser diode 405-30 CW (405 nm), and a HeNe-laser (633 nm). The objective used was a Zeiss plan-Apochromat 63×NA/1.4 oil DICII. Image processing and analysis were performed with basic software ZEN 2011 (Carl Zeiss Microlmaging GmbH) and Imaris 7.7.2 (Bitplane AG). Confocal z-stacks were deconvolved using Huygens Essential 14.06 (Scientific Volume Imaging b.v.), and visualized with Imaris.\nCells were surface-stained with anti-human HLA-ABC antibody (W6/32, BioLegend) prior to settlement on CelITak-coated slides for 20 minutes, followed by fixation with 4% paraformaldehyde. Intracellular staining was performed by incubation with anti-human LAMP-1 (Ab24170, Abcam) for 4h, followed by donkey anti-rabbit-A488 antibody (abcam) and donkey anti-mouse-A568 antibody (Abcam) and Hoechst33342.\nWhere indicated, cells were stained with mouse anti-human granzyme B-A647 (GB11) instead of anti-HLA-ABC, followed by donkey anti-mouse-A568."}, "[4]": {"test_system": "primary NK cells", "experiment": "Phospho-flow cytometry after CD16 ligation", "format": "cell-based, human", "details": "1 h pre-treatment, GPN 50 μM or vacuolin-1 10 μM", "protocol": "Functional assays for phospho-flow cytometry were performed at 37° C. in complete medium in NK cell suspensions between 5-10 M/mL for 20 min. Cells were pre-treated for 1 h using GPN (50 μM) or vacuolin-1 (10 μM), after which biotinylated CD16 (Biolegend, clone 3G8) was added to final concentrations of 5 μg/mL each. After 1 min, the aliquot for the 0 min (unstimulated) sample was taken out and mixed with Fix Buffer I (BD Biosciences). After one additional minute, the stimulation was started by crosslinking the biotinylated antibodies via 50 μg/mL avidin (Thermo Fischer Scientific) and the aliquots for the 5 min, 10 min and 20 min samples were transferred into Fix Buffer I (BD bioscience) at the corresponding time points. Cells were fixed at 37° C. for 10 min, washed and re-suspended in PBS. To allow combination of the differently stimulated samples into one, two dimensional fluorescent cell barcoding (FCB) was utilized. Samples were stained in distinct concentrations of amine-reactive pacific blue succinimidyl ester (Thermo Fisher Scientific) for the time points (0 min-0.69 ng/mL, 5 min-6.25 ng/mL, 10 min-25 ng/mL and 20 min-100 ng/mL) in combination with amine-reactive pacific orange succinimidyl ester (Thermo Fisher Scientific) for the different stimulations (control—10 ng/mL, GPN—100 ng/mL and vacuolin-1-500 ng/mL). After 20 min at RT, samples were washed twice in wash solution (PBS supplemented with 1% FCS and 0.09% sodium azide), combined, permeabilized (Perm Buffer III, BD Biosciences) and stored at −80° C. For thawing, samples were incubated 20 min on ice. Then, they were washed in wash solution and stained with Alexa Fluor 647-conjugated phospho epitope-specific antibodies against ZAP70/syk (pY319/pY352), Lck (pY505), Erk1/2 (pT202/pY204) (BD Bioscience), NF-κB p65 (pS536) (Cell Signaling Technologies) or isotype control IgG1K (BD Biosciences) for 30 min at RT. After washing data was acquired on an LSR Fortessa (BD Biosciences) and analysed in with FlowJo v10.0.8 (TreeStar)."}, "[5]": {"test_system": "NK cells", "experiment": "Granzyme B expression by flow cytometry after IL-15 or IL-21 stimulation with or without signalling inhibitors", "format": "cell-based, human", "excerpt": "Isolated PBMC were stained for flow cytometric analysis using an appropriate combination of the following antibodies, followed by the name of the clone in brackets: CD14-V500 (M5E2), CD19-V500 (HIB19), CD3-V500 (UCHT1), CD56 ECD (N901) CD57-PB (HCD57), CD57 purified (TB01), anti-mouse-IgM-EF650 (II/41), NKG2A-PE, APC or APC.AF750 (Z199), CD16-BV785 (3G8), KIR2DL3-FITC, KIR2DL1-APC or APC-Vio770 (REA284), KIR3DL1-AF700 or BV421 (D×9), KIR2DS4-QD585 (1847), KIR3DL2-biotin (D×31), KIR2DL2/L3/S2-PE.Cy5.5 (GL183), KIR2DL1/S1-PE.Cy7 (EB6) or PE-Vio770 (11 PB6). Dead cells were labelled using live/dead aqua (Life technologies). Biotin-conjugated antibodies were visualized using streptavidin-Qdot 585 or 605 (Life technologies). After surface staining, cells were fixed and permeabilized using a fixation/permeabilization kit (BD Bioscience Cytofix/Cytoperm) prior to intracellular staining with anti-granzyme B-A700 (GB11). Samples were acquired using an LSRII flow cytometer (Becton Dickinson) and data was analysed using FlowJo V10.0.8 (TreeStar)."}, "[6]": {"test_system": "NK cells", "experiment": "CD107a mobilization after PMA/Ionomycin stimulation", "format": "cell-based, human", "details": "indicated doses of GPN, FIG. 14D-E", "protocol": "as §1"}, "[7]": {"test_system": "NK cells", "details": "positive control, known property; cited from earlier work"}}, "note": "“Also recorded” adds a separate entry of the source. Peptide text beside a SMILES is read from it. * marks the point of attachment. βNA = c1ccc2cc(N*)ccc2c1"}
{"compound": "OC(c1cc(C(F)(F)F)nc2c(C(F)(F)F)cccc12)C1CCCCN1", "note": "(stereo not shown) [Mefloquine]", "values": [{"measurement": "general cellular toxicity (NK cell viability)", "setting": "[1]", "value": "none of these compounds showed any general cellular toxicity"}]}
{"compound": "Ic1cccc(/C=N/Nc2nc(N3CCOCC3)nc(N(c3ccccc3)c3ccccc3)n2)c1", "note": "[vacuolin-1]", "values": [{"measurement": "IFN-γ response to K562 cells", "setting": "[2]", "value": "enhanced"}, {"measurement": "degranulation (CD107a) in response to K562 cells", "setting": "[2]", "value": "enhanced"}, {"measurement": "NK cell function, compound alone", "setting": "[2]; resting NK cells, no target cell stimulation", "value": "had no effect"}, {"measurement": "secretory lysosome size", "setting": "[3]", "value": "increase in secretory lysosome size"}, {"measurement": "clustering of granzyme B within secretory lysosomes", "setting": "[3]; vacuolin-1 treatment, FIG. 11", "value": "clustering of Granzyme B inside the secretory lysosomes; also recorded: cause granzyme B to cluster within the large secretory lysosomes formed"}, {"measurement": "propagation of down-stream signals, in particular NF-κB", "setting": "[4]", "value": "increased"}, {"measurement": "upstream signalling (ZAP70 and Lck phosphorylation) following ligation of CD16", "setting": "[4]", "value": "minimal effect"}]}
{"compound": "Fc1ccc(-n2cc(CCCCN3CCC4(CC3)OCc3ccccc34)c3ccccc32)cc1", "note": "[Siramesine]", "values": [{"measurement": "general cellular toxicity (NK cell viability)", "setting": "[1]", "value": "none of these compounds showed any general cellular toxicity"}]}
{"compound": "IL-21: cytokine used to prime NK cells", "values": [{"measurement": "granzyme B response to cytokine stimulation, CD56dim NK cells", "setting": "[5]", "value": "increases in the level of granzyme B"}]}
{"compound": "NCC(=O)N[C@@H](Cc1ccccc1)C(=O)Nc1ccc2ccccc2c1", "note": "[GPN, glycyl-L-phenylalanine-beta-naphthylamide] (H-Gly-Phe-βNA)", "values": [{"measurement": "general cellular toxicity (NK cell viability)", "setting": "[1]", "value": "none of these compounds showed any general cellular toxicity"}, {"measurement": "threshold for PMA/I-induced activation in self-specific NK cells", "setting": "[6]", "value": "reversed the higher threshold for PMA/I-induced activation"}, {"measurement": "IFN-γ response to K562 cells", "setting": "[2]", "value": "reduced corresponding IFN-γ expression"}, {"measurement": "degranulation (CD107a) in response to K562 cells", "setting": "[2]", "value": "abrogate specific degranulation"}, {"measurement": "propagation of down-stream signals, in particular NF-κB", "setting": "[4]", "value": "decreased"}, {"measurement": "upstream signalling (ZAP70 and Lck phosphorylation) following ligation of CD16", "setting": "[4]", "value": "minimal effect"}]}
{"compound": "CCC(=O)N1CCN(c2ccc(-n3c(=O)ccc4cnc5ccc(-c6cnc7ccccc7c6)cc5c43)cc2C(F)(F)F)CC1", "note": "[Torin-1]", "values": [{"measurement": "cytokine-induced increase in granzyme B", "setting": "[5]; 24 h IL-15 or IL-21, self- and non-self-specific NK cells", "value": "reversed the cytokine-induced increase in granzyme B"}, {"measurement": "pre-existing constitutive levels of granzyme B", "setting": "[5]; before cytokine stimulation, FIG. 6", "value": "did not further reduce"}]}
{"compound": "Cc1cccc(/C=N/Nc2cc(N3CCOCC3)nc(OCCc3ccccn3)n2)c1", "note": "[apilimod]", "values": [{"measurement": "secretory lysosome size", "setting": "[3]", "value": "increase in secretory lysosome size"}]}
{"compound": "IL-15: cytokine used to prime NK cells", "values": [{"measurement": "granzyme B response to cytokine priming, CD56bright NK cells", "setting": "[5]; CD56bright NK cells", "value": "responded to priming by IL-15"}, {"measurement": "granzyme B response to cytokine stimulation, CD56dim NK cells", "setting": "[5]", "value": "increases in the level of granzyme B"}]}
{"compound": "COC(=O)[C@H](CC(C)C)NC(=O)[C@@H](N)CC(C)C", "note": "[LeuLeuOMe, L-Leucyl-L-leucine methyl ester]", "values": [{"measurement": "induction of apoptosis in immune cells", "setting": "[7]", "value": "known to induce apoptosis in immune cells"}]}
